In patent US20140271734A1, “BILE ACID RECYCLING INHIBITORS FOR TREATMENT OF BARRETT'S ESOPHAGUS AND GASTROESOPHAGEAL REFLUX DISEASE” (LUMENA PHARMACEUTICALS, INC., priority 2013, published 2014):
Read-outs that look alike come from different tables or passages of the source.

Key:
fecal bile acid (FBA) = assay: Fecal bile acids in hamsters, LUM001 for 28 days; type: in vivo, golden Syrian hamsters; conditions: for Weight-Adjusted Fecal Total Bile Acids Excretion: n=10
Description: Male golden Syrian hamsters (126-147 gm) were obtained from Charles Rivers Laboratories and were single housed in a constant temperature environment with alternating 12-hour light and dark cycles. Hamsters were fed Teklad 7001 rodent meal chow at libitum for two weeks before the experimental studies began and switched to Teklad 7001 rodent meal chow supplemented with 0.24% cholesterol on day one of the 28-day experiment. LUM001 was dissolved in an aqueous solution of 0.2% (w/v) Tween 80 and administered Q.D. by intragastric gavage between 9 a.m. and 10 a.m. each morning using a syringe fitted with a flexible feeding tube. Blood samples were collected after 14- and 28-day treatment periods by orbital sinus and cardiac puncture, respectively. Hamsters were anesthetized but not fasted prior to blood collections. Fecal samples were collected during a 48-hour period at the end of days 14 and 28 (i.e., days 13-14 and 27-28, respectively).
Fecal samples were collected to determine the fecal bile acid (FBA) concentration for each animal. The separate collections from each hamster were weighed and homogenized with distilled water with a Polytron tissue processor (Brinkman Instruments) to generate a homogeneous slurry. Fecal homogenate (1.4 grams) was extracted with 2.6 mL of a solution containing tertiary butanol:distilled water in the ratio of 2:0.6 [final concentration of 50% (v/v) tertiary butanol] for 45 minutes in a 37° C. water bath and subjected to centrifugation for 13 minutes at 2000×g. The concentration of bile acids (mmolesgram homogenate) was determined using a 96-well enzymatic assay system (6, 7). Aliquots of the fecal extracts (20 μl) were added to two sets of triplicate wells in a 96-well assay plate. A standardized sodium taurocholate solution and a standardized fecal extract solution (previously made from pooled samples and characterized for its bile acid concentration) were also analyzed for assay quality control. Aliquots of 90 mM sodium taurocholate ([…]), were serially diluted to generate a standard curve containing 30-540 nmoles/well. A […] aliquot of reaction mixture containing 1M hydrazine hydrate, 0.1 M pyrophosphate and 0.46 mg/ml NAD was added to each well. Subsequently, a […] aliquot of either 3a-hydroxysteroid dehydrogenase enzyme (HSD; 0.8 units/ml) or assay buffer (0.1 M sodium pyrophosphate) was then added to one each of the two sets of triplicates. Following 60 minutes of incubation at room temperature, the optical density at 340 nm was measured and the mean of each set of triplicate samples was calculated. The difference in optical density±HSD enzyme was used to determine the bile acid concentration (mM) of each sample based on the sodium taurocholate standard curve. The bile acid concentration of the extract (mmolesgram homogenate), the total weight of the fecal homogenate (grams) and the body weight of the hamsters (g) were used to calculate the corresponding FBA concentration in mmoles/day/kg body weight for each animal. All reagents used for the assay were obtained from Sigma Chemical Co., St. Louis, Mo. (HSD—catalog # H-1506; NAD—catalog # N1636; sodium taurocholate—catalog # T-4009).

[1] = Pharmacokinetics of LUM001 after oral gavage in rats; type: in vivo; conditions: both sexes, Sprague Dawley, rat, plasma; for bioavailability: read-out: BA (bioavailability); for AUC(0-t): read-out: AUC(0-8 h)
Description: Groups of fasted Sprague Dawley rats (n=6/sex/group) were administered LUM001 as a single oral solution dose of either 1, 5 or 30 mg LUM001 free form/kg. The dose of 5 mg LUM001 free form/kg was also administered to rats in a fed state to evaluate the effect of food on plasma concentrations of LUM001 free form. Since LUM001 is a chloride salt, 105% of the amount of LUM001 is required to deliver the stated dose of the free form. The oral dose was delivered to the rat in Tween 80Milli-Q water (0.2% Tween, v/v) and was prepared on the day of dosing.
Blood samples of approximately 1 mL (n=2/sex/timepoint/treatment group) were collected by retro-orbital bleed into chilled tubes containing heparin at timepoints 0 (predose), 0.25, 0.5, 1, 1.5, 2, 3, 5 and 8 hours. The plasma samples were prepared by centrifugation of blood within 30 minutes after sample collection. All samples were stored at −20° C.±5° C. until analysis to study the relative exposures of LUM001 free form after oral solution dosing. The concentration of LUM001 free form in plasma were determined using an LCMSMS method. The assay sensitivity was 2.38 ng/mL.
Means and standard errors of the means (SEM) were calculated for plasma concentrations at each time point. Mean values are significant to three figures and SEM values are significant to the same decimal place as the corresponding mean. Concentration values less than the assay sensitivity (2.38 ng LUM001 free form/mL) were reported as zero. The area under the plasma concentration-time curve (AUC) was calculated from time 0 to 8 hours using a non-compartmental model in WinNonlin (1). The bioavailability (% BA) of LUM001 after oral administration of LUM001 was calculated according to the equation below:
% BA=[AUC oral (0-8)/AUC IV(0-8)/Dose oral/Dose IV]×100.

serum bile acids = assay: Fasting and post-prandial serum bile acids in children and adolescents on LUM001; type: in vivo, human
Description: LUM001 has been administered to forty patients under the age of 18 years old. […] The drug was administered once-a-day (QD) in the morning for fourteen days. […] These doses are similar to those using to treat patients with Barrett's esophagus or GERD.
The efficacy of LUM001 was determined by measuring total serum bile acids after eight days of dosing in children and adolescents under the age of eighteen. Thirty minutes before the next drug administration, at approximately 8 am in the morning, serum bile acid levels were measured. The child had refrained from food for 12 hours prior to this sample thus providing a fasted level of serum bile acid. After breakfast, serum bile acids were measured for up to the next 4 hours (8 am to noon) and the peak serum bile acid concentration noted.

[2] = test system: serum total bile acid (SBA); conditions: previous experiments; cited from earlier work
plasma lipase = assay: Plasma lipase in ZDF rats, week 3; type: in vivo; conditions: twice daily oral gavage
[3] = test system: Alkaline Phosphatase (ALP); conditions: twice daily oral gavage; Week 3
Description: This study was conducted to determine the effects of two non-absorbed ASBTi compounds in the ZDF rat model after 3 weeks of treatment.
Animals were acclimatized for 5-7 days after arrival. […] The 2nd set of study was initiated after completion of the 1st. Test compound formulation prepared every other day and stored at 4° C. […] After 3rd week of treatment blood samples were collected by cardiac puncture from fasted animals for blood chemistry analysis: ALAT, ASAT, GGT, Alkaline Phosphatase and total Bile Acids. Tests were performed in contract clinical laboratory (Liver Profile SA320, Antech Diagnostics, Orange Country, Calif.).
Blood was collected by tail vein bleed weekly and after 3 weeks of treatment by cardiopuncture for serum tests. Data for each group is presented as the Mean Value±SEM. Statistically evaluation by t-test: *P<0.05, **P<0.01,***P<0.001 vs. vehicle group.

[4] = 5 mg/kg, single oral gavage 5 mg/kg free form, fasted
[5] = 5 mg/kg, single oral gavage 5 mg/kg free form, fed
[6] = 30 mg/kg, single oral gavage 30 mg/kg free form, fasted

CCCCC1(CCCC)CS(=O)(=O)c2ccc(N(C)C)cc2[C@@H](c2ccc(OCc3ccc(C[N+]45CCN(CC4)CC5)cc3)cc2)[C@H]1O [LUM001]
Weight-Adjusted Fecal Total Bile Acids Excretion, % change from vehicle group (fecal bile acid (FBA); 5 mg/kg/day): (+233) % | Weight-Adjusted Fecal Total Bile Acids Excretion (fecal bile acid (FBA); 5 mg/kg/day): 60 µmol/day/kg | Weight-Adjusted Fecal Total Bile Acids Excretion, % change from vehicle group (fecal bile acid (FBA); 15 mg/kg/day): (+267) % | Weight-Adjusted Fecal Total Bile Acids Excretion (fecal bile acid (FBA); 15 mg/kg/day): 66 µmol/day/kg | Weight-Adjusted Fecal Total Bile Acids Excretion, % change from vehicle group (fecal bile acid (FBA); 50 mg/kg/day): (+422) % | Weight-Adjusted Fecal Total Bile Acids Excretion (fecal bile acid (FBA); 50 mg/kg/day): 94 µmol/day/kg | bioavailability ([1]; 1 mg/kg, single oral gavage 1 mg/kg free form, fasted): < 0.1% | Cmax [1, 4]: 2.45 ng/mL | Tmax [1, 4]: 60 min | AUC(0-t) [1, 4]: 6.58 ng·h/mL | bioavailability [1, 4]: 0.1% | Cmax [1, 5]: 3.58 ng/mL | Tmax [1, 5]: 15 min | AUC(0-t) [1, 5]: 12.6 ng·h/mL | bioavailability [1, 5]: 0.2% | Cmax [1, 6]: 5.43 ng/mL | Tmax [1, 6]: 30 min | AUC(0-t) [1, 6]: 4.16 ng·h/mL | bioavailability [1, 6]: < 0.1% | Decrease of average fasting serum bile acid vs placebo patients (serum bile acids; LUM001 treated patients): 24% | Decrease of average post-prandial peak serum bile acid vs placebo patients (serum bile acids; LUM001 treated patients): 23% | Average post-prandial peak serum bile acid level (serum bile acids; LUM001 treated patients (placebo 11.9)): 9.2 µmol/L | Morning Post-prandial peak serum bile acid (serum bile acids; Patient 304, 1 mg, after eight days of dosing): 8.4 µmol/L | Morning Post-prandial peak serum bile acid (serum bile acids; Patient 308, 1 mg, after eight days of dosing): 9.3 µmol/L | Morning Post-prandial peak serum bile acid (serum bile acids; Patient 309, 1 mg, after eight days of dosing): 10.0 µmol/L | Morning Post-prandial peak serum bile acid (serum bile acids; Patient 401, 2.5 mg, after eight days of dosing): 6.8 µmol/L | Fasting and post-prandial peak levels of serum bile acids (serum bile acids; children and adolescents, after eight days of dosing): generally decrease both the fasting and post-prandial peak levels of serum bile acids | Time LUM001 remains active [2]: more than 4.5 hours

CCCC[C@]1(CC)CS(=O)(=O)c2ccc(N(C)C)cc2[C@@H](c2cccc(NC(=O)N[C@@H]3O[C@H](COS(=O)(=O)[O-])[C@@H](O)[C@H](OCc4ccccc4)[C@H]3O)c2)[C@H]1O.CCO.O.[K+] [LUM002, potassium((2R,3R,4S,5R,6R)-4-benzyloxy-6-{3-[3-((3S,4R,5R)-3-butyl-7-dimethylamino-3-ethyl-4-hydroxy-1,1-dioxo-2,3,4,5-tetrahydro-1H-benzo[b]thiepin-5-yl)-phenyl]-ureido}-3,5-dihydroxy-tetrahydro-pyran-2-ylmethyl)sulphate ethanolate, hydrate]
Plasma lipase (plasma lipase): statistically significant reductions in plasma lipase at higher doses | Plasma alkaline phosphatase (ALP) [3]: significant reductions in ALP
